Results reported in patent publication US8063101B2, “Carotenoid analogs and derivatives for the prevention of platelet aggregation” (Cardax Pharmaceuticals, Inc., priority 2007, dated 2011).
Values joined by “and” are separate entries in the source; they are usually repeats but may differ in a detail not shown here. Equal values may be shown once.

How the values were obtained:
[1] = system: left carotid artery (LCA) thrombosis; test: Canine thrombosis model: left carotid artery reocclusion following rt-PA fibrinolytic therapy; format: in vivo, beagle dogs; settings: for Incidence of Re-occlusion: 0.9% NaCl group 5/7; for Platelet Count (Post rt-PA) / Time to thrombolysis: mean±SEM; for reduction in thrombus weights compared to 0.9% NaCl solution: end of protocol
Method: The experimental model used is a modification of that described by Hong, et al., (Thromb Res 117: 333-342, 2006), Rebello, et al., (Arterioscler Thromb Vasc Biol 18: 954-960, 1998), and Rote, et al. (Cardiovasc Res 27: 500-507, 1993). Healthy male or female purpose-bred beagle dogs (9-13 kg) were anesthetized with sodium pentobarbital (30 mg/kg, i.v.), intubated and ventilated with room air at a tidal volume of 30 ml/kg and a rate of 12 breaths per minute. The left carotid artery (LCA) was exposed by blunt dissection using care not to injure the vessel. An external adjustable stainless steel constrictor was shaped to fit each vessel and adjusted with a nylon screw (2 mm in diameter) to reduce the pulsatile flow pattern by 50% without altering the mean carotid artery blood flow rate. Vascular injury was accomplished with the application of a low anodal current to the intimal surface of the vessel via an intravascular electrode composed of a Teflon® insulated, silver-coated, copper wire. The intravascular electrode was connected to the positive pole (anode) of a dual-channel square wave generator (Grass S88 stimulator) and a Grass Constant Current Unit; model CCUIA (Grass Instrument Division, Astro-Med, Inc. West Warwick, R.I.). The cathode was attached at a remote subcutaneous site. The current (300 μA) applied to the intimal surface of the vessel was monitored continuously. The intravascular electrode and mechanical constrictor were upstream with respect to the flow probe. Blood flow in the carotid artery was quantified using a graded patency scoring system of 0-3 as described previously (16), in which a score of 0 represents no flow (total occlusion), 1-2 represents varying degrees of reduced and cyclic patterns of flow and 3 represents non-oscillatory or uninterrupted blood flow.
FIG. 8 illustrates the experimental protocol. Twenty-eight dogs were randomized between four treatment groups receiving either DDA (10, 30 or 50 mg/kg i.v. n=7 per group) or 0.9% NaCl (n=7). Experimental thrombosis of the left carotid artery (LCA) was induced to achieve total occlusion of blood flow. Thirty minutes later, the animals received an intravenous infusion of DDA or an equivalent volume of 0.9% NaCl solution for thirty minutes (flow rate depended on dose of DDA). The drug treatment was followed by intra-carotid administration of rtPA (0.54 μg/kg bolus+3.26 μg/kg/h infusion) delivered immediately proximal to the occlusive thrombus. The infusion of rtPA was discontinued 10 min after establishing 20% of the original flow. The end-point determinations consisted of: (1) time to thrombolysis, (2) incidence of LCA reocclusion (secondary thrombosis), (3) vessel patency scores assessed by dynamic flow recordings, and (4) thrombus weight.
The data are expressed as mean±SEM and were analyzed by one-way analysis of variance for group comparisons followed by a Dunnett's post hoc t-test to determine the level of significance. The incidence of carotid artery reocclusion was compared between the groups by chi-square test. The change over time in the vessel blood flow patency score was compared between two groups by two-way analysis of variance followed by Bonferroni post-tests to determine the level of significance. Values are considered statistically different at p<0.05.

Tongue bleeding time = format: in vivo, beagle dogs; settings: DDA 10, 30 or 50 mg/kg followed by rt-PA
Method: Tongue bleeding time (BT) was determined with the use of a SurgiCut™ (International Technidyne Corp, Edison, N.J.) device that makes a uniform incision 5 mm long and 1 mm deep on the upper surface of the tongue. The tongue lesion was blotted with filter paper every 20 sec until the transfer of blood to the filter paper was no longer apparent. The interval, from the time of the tongue incision until the time that blood was no longer transferred to the filter paper, was recorded as the tongue bleeding time.

[2] = Hemodynamic variables during canine thrombosis protocol; format: in vivo, beagle dogs
Aqueous dispersibility = format: physicochemical; settings: sterile-filtered deionized water
Source text: In some embodiments, highly water-dispersible C40 carotenoid derivatives may include natural source RRR-lutein (β,ε-carotene-3,3′-diol) derivatives. Derivatives may be synthesized by esterification with inorganic phosphate and succinic acid, respectively, and subsequently converted to the sodium salts. Deep orange, evenly colored aqueous suspensions were obtained after addition of these derivatives to USP-purified water. […] Aqueous suspensions may be obtained without the addition of heat, detergents, co-solvents, or other additives.
Disodium disuccinate astaxanthin (DDA; see FIG. 1B) was synthesized from commercially available crystalline astaxanthin (Buckton Scott, India) as previously described in Frey, et al. (“The efficient synthesis of disodium disuccinate astaxanthin (Cardax).” Org Process Res Dev 8: 796-801, 2004.). The final product purity was 97% (as area under the curve) by HPLC analysis. DDA was dissolved directly in sterile-filtered deionized water. The maximum aqueous dispersibility of DDA is approximately 10 mM, or 8.64 mg/ml. Vehicle consisted of isotonic sterile 0.9% NaCl solution.

[3] = DDA 10 mg/kg i.v. followed by rt-PA
[4] = DDA 30 mg/kg i.v. followed by rt-PA
[5] = DDA 50 mg/kg i.v. followed by rt-PA

SMILES: CC1=C(/C=C/C(C)=C/C=C/C(C)=C/C=C/C=C(C)/C=C/C=C(C)/C=C/C2=C(C)C(=O)C(OC(=O)CCC(=O)O)CC2(C)C)C(C)(C)CC(OC(=O)CCC(=O)O)C1=O (stereo not shown) [DDA, Disodium disuccinate astaxanthin]
- Incidence of Re-occlusion [1, 3]: 6/7
- Platelet Count (Post rt-PA) [1, 3]: 352 ± 37
- Time to thrombolysis [1, 3]: 20.3 ± 6.7 min
- arterial patency score (0-3) ([1]; DDA 10 mg/kg, 0-30 min after rt-PA): 1.4 ± 0.2
- arterial patency score (0-3) ([1]; DDA 10 mg/kg, 30-60 min after rt-PA): 1.3 ± 0.4
- arterial patency score (0-3) ([1]; DDA 10 mg/kg, 60-90 min after rt-PA): 1.1 ± 0.3
- arterial patency score (0-3) ([1]; DDA 10 mg/kg, 90-120 min after rt-PA): 1.1 ± 0.4
- arterial patency score (0-3) ([1]; DDA 10 mg/kg, 120-150 min after rt-PA): 0.4 ± 0.4
- arterial patency score (0-3) ([1]; DDA 10 mg/kg, 150-180 min after rt-PA): 0.4 ± 0.4
- Incidence of Re-occlusion [1, 4]: 3/7
- Platelet Count (Post rt-PA) [1, 4]: 316 ± 32
- Time to thrombolysis [1, 4]: 20.6 ± 7.9 min
- reduction in thrombus weights compared to 0.9% NaCl solution ([1]; DDA 30 mg/kg i.v.): 43±4%
- arterial patency score (0-3) ([1]; DDA 30 mg/kg, 0-30 min after rt-PA): 1.3 ± 0.2
- arterial patency score (0-3) ([1]; DDA 30 mg/kg, 30-60 min after rt-PA): 1.3 ± 0.4
- arterial patency score (0-3) ([1]; DDA 30 mg/kg, 60-90 min after rt-PA): 1.0 ± 0.4
- arterial patency score (0-3) ([1]; DDA 30 mg/kg, 90-120 min after rt-PA): 1.6 ± 0.5
- arterial patency score (0-3) ([1]; DDA 30 mg/kg, 120-150 min after rt-PA): 1.1 ± 0.5
- arterial patency score (0-3) ([1]; DDA 30 mg/kg, 150-180 min after rt-PA): 1.4 ± 0.5
- Incidence of Re-occlusion [1, 5]: 1/7
- Platelet Count (Post rt-PA) [1, 5]: 363 ± 66
- Time to thrombolysis [1, 5]: 24.0 ± 6.0 min
- reduction in thrombus weights compared to 0.9% NaCl solution ([1]; DDA 50 mg/kg i.v.): 42±5%
- arterial patency score (0-3) ([1]; DDA 50 mg/kg, 0-30 min after rt-PA): 1.9 ± 0.3
- arterial patency score (0-3) ([1]; DDA 50 mg/kg, 30-60 min after rt-PA): 2.4 ± 0.3
- arterial patency score (0-3) ([1]; DDA 50 mg/kg, 60-90 min after rt-PA): 2.3 ± 0.4
- arterial patency score (0-3) ([1]; DDA 50 mg/kg, 90-120 min after rt-PA): 2.3 ± 0.5
- arterial patency score (0-3) ([1]; DDA 50 mg/kg, 120-150 min after rt-PA): 2.3 ± 0.4
- arterial patency score (0-3) ([1]; DDA 50 mg/kg, 150-180 min after rt-PA): 2.3 ± 0.5
- time to clot lysis compared with 0.9% NaCl-treated animals ([1]; DDA 10, 30 or 50 mg/kg followed by rt-PA): similar
- whole blood platelet counts ([1]; dog, in vivo): unaffected
- vessel patency score during the protocol ([1]; intermediate and highest doses of DDA (30 and 50 mg/kg)): progressive improvement
- tongue template bleeding time, baseline vs after drug treatment (Tongue bleeding time): similar
- time for blood pressure to return to original values ([2]; DDA 50 mg/kg): ≤ 30 min
- transient decrease in arterial blood pressure ([2]; DDA 50 mg/kg, seen in 5 dogs): < 15%
- mean arterial blood pressure and heart rate throughout the protocol ([2]; all groups (DDA 10, 30, 50 mg/kg)): did not differ significantly
- maximum aqueous dispersibility (Aqueous dispersibility): approximately 10 mM and ~8.64 mg/ml
